According to patent US8754206B2, “Metal (III) complex of biuret-amide based macrocyclic ligand as green oxidation catalyst” (Council of Scientific & Industrial Research, priority 2011, dated 2014):

What was measured:
[1] = Cyclic voltammetry in acetonitrile; type: physicochemical
From the text: The σ-donor ability of (Et4N)2.[Fe^III(biuret-amide)] is studied using cyclic voltammetry. […] The peak observed for (IA) (E1/2 at −0.064 V) can most likely be assigned to a one electron oxidation for a Fe(III)/Fe(IV) couple while the other peak might be due to a ligand centered oxidation process (FIG. 6). On comparison with Fe-TAML complex (II) where a —CMe2 group is present instead of a —NMe group in the six membered ring of the complex, the Fe(III)/Fe(IV) couple for (IA) is found to be approximately 230 mV lower.
Infrared spectra were obtained on a Perkin-Elmer FT-IR spectrum GX instrument. LC-MS from Acquity Waters was used for ESI-MS analysis. EPR spectrum was recorded on a Bruker EMX X-band spectrometer operating at a field modulation of 100 kHz, modulation amplitude of 2. G and microwave radiation power of 2 mW. The solid Fe(III) complex was taken in a quartz tube and the spectrum was recorded at 298K. Cyclic voltammetry (CV) was done on an Autolab PGSTAT30 (Eco-Chemie) instrument in a conventional three-electrode test cell with platinum as the working electrode (WE), platinum wire as quasi reference electrode (RE) and a platinum foil as a counter electrode (CE). The measurements were carried out using a solution of 1 mM of (I) in dry acetonitrile with 0.1 M [n-Bu4N]PF6 as the supporting electrolyte. All reversible couples were confirmed by a linear dependence of peak current vs. the square root of the scan rate over the range of 20-200 mVs^−1.

[2] = Stability towards demetallation at different pH and phosphate buffer ionic strengths (UV-VIS); type: physicochemical; conditions: for demetalation in high concentration phosphate buffer: twenty four hour time scale, 350 nm
Description: In yet another embodiment, the stability of (IA) towards demetallation at different pH and ionic strengths is tested to evaluate the operational stability of the complex of instant invention for possible catalytic reactions in water. […] The stability of this complex is also monitored at different ionic strengths at pH 7. […] The phosphate buffer induced demetallation for similar Fe-TAML's have been studied in details. The proposed mechanism for phosphate buffer induced demetallation involves first the co-ordination of the O—PO(OH)2 into the Fe(III) center followed by the intramolecular attack of the H+ onto the amide N-donors. Complex (IA) has an extra —NMe group which is not bonded to the Fe(III) center. The lone pair on this N-atom resides predominantly in the p-orbital and can possibly be the first site for attack of the intramolecular H+ ion, thereby shielding complex (IA) from phosphate induced demetallation.
(§1) a. Kinetic Studies of Add Catalyzed Demetalation. • [Fe^III(biuret-amide)] catalyst are subject to H^+ catalyzed demetalation, following the Equation 1 according to Scheme 2 described above, kd=k1*[H^+]+k2*[H^+]^2+k3*[H^+]^3 where kd is the first order rate constant.

[3] = Catalyzed bleaching of Orange II by H2O2; conditions: for k−1: from kinetic fitting; for k1 / k2: 0.01M Phosphate Buffer
From the text: In another embodiment, to study the efficacy of complex (IA) as H2O2 activating catalyst, its activity towards bleaching of the dye Orange II ([4-[(2-hydroxynaphthyl)azo]-benzene sulphonic acid], Na+ salt) is studied. […] The exponential kinetic curve, that holds for at least 6 half-lives (FIG. 8), indicates the fact that (IA) is oxidatively robust. Therefore, little or no degradation of the catalysts takes places during the course of the oxidation. This is because C—H bond of the —NMe group is situated very far away from the proposed Fe-oxo intermediate, thereby reducing the chances of ligand degradation by intramolecular C—H abstraction as has been proposed before for other Fe-TAML, complexes.
Using same Perkin-Elmer spectrophotometer Orange II bleaching kinetics were carried out in 0.01 M phosphate buffer at 485 nm, one of the absorption peaks of Orange II. pH was varied from 7 to 11. Strength of stock solutions of IB and Orange II were (2×10^−5 M) and (2−20×10^−4 M) respectively. Stock solution of hydrogen peroxide of 2×10^−2 M was made by measuring the optical density at 230 nm (ε=72.8 M^−1 cm^−1). Appropriate amount of stock solutions of Orange II, Fe^III-catalyst (IB) and H2O2 were added consecutively in the 1.00 cm quartz cell during experiments. Extinction coefficients for Orange II of 17,800, 23,000 and 19,400 M^−1 cm^−1 at pH 7, 9 and 11 respectively was used to calculate the initial rates of Orange II oxidation, Plot of concentration versus time was taken up to 10-20% of conversion of the dye compared to the total reaction.
b. Kinetics of IA and IB Catalyzed Bleaching of Orange II by H2O2 • Orange II dye has absorption maxima at 485 nm. Natural oxidant H2O2 slowly oxidizes Orange II but in presence of IA and IB huge catalysis was observed. The kinetic data followed the mechanism shown in Scheme 2. The initial rate of the dye bleaching reaction obeyed Michaelis-Menten type Equation (2) which was derived considering the steady state of oxidized [Fe^III(L2X)] species using mass balance equation [Fe^III]T=[Fe^III(L2X)]]+[Oxidized-[Fe^III L2X)]]. From kinetic fitting it was observed k.1˜0 for both IA and IB. […] In Table 3 all the kinetic parameters related to Orange II bleaching are given in details at 25° C. in 0.01 M Phosphate Buffer.

[4] = Acid (HClO4) catalyzed demetalation kinetics; type: physicochemical; conditions: for k1* (acid catalyzed demetalation): HClO4, 25.0 °C, 350 nm; for half-life at 0.173 mM: aqueous HClO4 solution, pH 1, read-out: t1/2 [pH 1] (converted)
Description: Acid induced demetalation kinetics was monitored in kinetic mode of the spectrophotometer (Perkin-Elmer—λ35) using 1.00 cm quartz cell in thermostatted cell housing. In the all kinetic runs IB was kept constant at 0.173 mM while acid concentration was varied from 0.04 to 3.0 M using HClO4. The pseudo first order rate constants (kd) were calculated from the initial rates at 350 nm (one of the absorption peaks of complex IB) and temperature was kept constant at 25.0±0.5° C. For each set, solution pH was measured with a pH meter (LABINDIA, PICO^+) with calibrated electrode.
as §1

[5] = Catalyzed bleaching of Safranine O by H2O2 and intramolecular inactivation; conditions: pH 11.0, 25° C.
From the text: Safranine O oxidation kinetics was monitored at 525 nm and pH 11 in 0.01 M Phosphate Buffer. The strengths of stock solutions of Safranine O, [Fe^III(biuret-amide)](X═H, NO2) IA, IB complexes and hydrogen peroxide were respectively 2×10^−3 M, 5×10^−5 M and 0.2 M respectively. The extinction coefficient of 3.3×10^4 […] at 525 nm was used to get initial rate in terms of concentration unit (Ms^−1). To get the intramolecular inactivation rate (ki) absorbance change with time was monitored up to complete inactivation of the catalyst. Calculations of rate constants were performed by using Equation (4) and (5).
c. […] For safranine O bleaching, Equation (2) can be simplified to Equation (3) and k2 value can be calculated from the initial rate vs, [Safranine O] data as given in Table 4.
d. Intramolecular Inactivation (ki) Measurement for Safranine O Bleaching at pH 11.0 • The mono exponential intramolecular inactivation rate constant (ki) measurement of the oxidized form of the catalyst was done by the method followed by Collins group. The simplified differential rate law for dye bleaching is given by Equation (3) where Dt and x are total concentrations of the dye and concentration of the bleached dye at time t respectively. Integrating the Equation (3) under the boundary condition x=x∞ at t=t∞ results Equation (4). Equation (5) was derived by replacing the concentration terms by the absorbance term.
From the slope of the double logarithm of the ratio At/A∞ vs. time plot in Equation 6 gives the value of ki (FIG. 13, Table 4). The rate constant k2 is calculated from the intercept of the plot by putting the value of ki.

| Compound | demetalation in high concentration phosphate buffer [2] | k−1 [3] | k1 ([3]; pH 7.0, 25° C.) | k2 ([3]; pH 7.0, 25° C.) | k1 ([3]; pH 9.4, 25° C.) | k2 ([3]; pH 9.4, 25° C.) | k1 ([3]; pH 11.0, 25° C.) | k2 ([3]; pH 11.0, 25° C.) | acid induced demetalation compared to compound II [4] | k1* (acid catalyzed demetalation) [4] | half-life at 0.173 mM [4] | ki × 10^4 (intramolecular inactivation) [5] | k2 × 10^−3, from Equation (5) [5] | k2 × 10^−3, from initial rates [5] | other results |
| --- | --- | --- | --- | --- | --- | --- | --- | --- | --- | --- | --- | --- | --- | --- | --- |
| CN1C(=O)[N]2C(C)(C)C(=O)[N]3c4ccccc4[N]4C(=O)C(C)(C)[N](C1=O)[Fe]342[Cl] [Catalyst 1A, Tetraethyl ammonium 3,3,6,9,9-pentamethyl-1,4,8,11-tetrahydro-1H-benzo[i][1,4,6,8,11]pentaazacyclotridecine-2,5,7,10(6H,11H)-tetraone ferrate] | insignificant absorption change | ~0 | (2.0 ± 0.1) × 10^2 M^−1s^−1 | (2.0 ± 0.1) × 10^4 M^−1s^−1 | (2.8 ± 0.2) × 10^3 M^−1s^−1 | (1.12 ± 0.10) × 10^5 M^−1s^−1 | (3.4 ± 0.2) × 10^4 M^−1s^−1 | (1.60 ± 0.10) × 10^5 M^−1s^−1 | significantly less | (3.7 ± 0.5) × 10^−3 M^−1s^−1 | 0.4 h | 3.7 ± 0.1 s^−1 | 2.0 ± 0.1 M^−1s^−1 | 2.4 ± 0.1 M^−1s^−1 | Fe(III)/Fe(IV) couple lower than Fe-TAML complex (II) [1]: approximately 230 mV; formal reduction potential E1/2, reversible process (Fe(III)/Fe(IV) couple) ([1]; acetonitrile, 0.1 M [n-Bu4N]PF6, vs Fc+/Fc): −0.064 V; E1/2, quasi-reversible process ([1]; acetonitrile, 0.1 M [n-Bu4N]PF6, vs Fe+/Fc): −0.559 V; stability at low pH ([2]; in presence of HClO4): very good stability up to pH 2; half-life ([2]; pH 5, 0.1M phosphate buffer, 25° C.): ~18 h; complex degraded ([2]; pH 5, 0.1M phosphate buffer, 5 hours, 25° C.): 10%; stability at different ionic strengths ([2]; pH 7, phosphate concentration): remarkably stable up to 0.5 M phosphate concentrations; catalytic activity compared with Fe-TAML ([3]; pH 7 and 9): much faster in oxidizing Orange II; bleaching of the dye Orange II by activation of H2O2 ([3]; pH 11): complete bleaching; pseudo first order rate constant kobs ([3]; pH 11): 0.021 ± 0.001 s⁻¹ |
| CN1C(=O)[N]2C(C)(C)C(=O)[N]3c4ccc([N+](=O)[O-])cc4[N]4C(=O)C(C)(C)[N](C1=O)[Fe]342[Cl] [Catalyst 1B, Tetraethyl ammonium 3,3,6,9,9-pentamethyl-13-nitro-1,4,8,11-tetrahydro-1H benzo[i][1,4,6,8,11]pentaazacyclotridecine-2,5,7,10(6H,11H)-tetraone ferrate] | insignificant absorption change | ~0 | (1.24 ± 0.10) × 10^3 M^−1s^−1 | (4.1 ± 0.5) × 10^5 M^−1s^−1 | (2.36 ± 0.6) × 10^3 M^−1s^−1 | (4.2 ± 0.4) × 10^5 M^−1s^−1 | (2.4 ± 0.2) × 10^4 M^−1s^−1 | (4.9 ± 0.5) × 10^5 M^−1s^−1 | significantly less | (1.41 ± 0.09) × 10^−3 M^−1s^−1 | 1.33 h | 3.0 ± 0.2 s^−1 | 3.8 ± 0.3 M^−1s^−1 | 3.9 ± 0.1 M^−1s^−1 |  |
